Measured values: US20030194750A1, “Methods for treatment of diseases where GSK 3-beta is desired, and methods to identify compounds usefule for that” (priority 2002, published 2003)
Counter-ions that a name gives are not always drawn.

What was measured:
human patients = assay: Single, escalating dose human clinical safety study; assay type: in vivo; conditions: oral, 50 mg BID, 100 mg BID, 200 mg BID and 400 mg BID
PDE 5 = PDE 5 (Homo sapiens, UniProt O76074); assay: Competitive (with cGMP) binding to PDE5
GSK3β = assay: Western blot of GSK3β-phospho-ser9 in SW480 cells; assay type: cell-based, human; conditions: various concentrations, 48 hours, vs 0 concentration
Method: (§1) 50 μg protein/lane were analyzed by Western blot analysis using specific anti-PKG1β and anti-GSK3β-phospho-ser9 antibodies.

[1] = target: T1, GST-cGB-PDE5 fusion protein (Homo sapiens, UniProt O76074); assay: cGMP binding assay with GST-cGB-PDE5 fusion protein; conditions: 3H-cGMP 2 μM, 22° C., 1 hour
T1 construct: made in house; host or cells: E. coli BL21 (DE3)
Method: 5′-3′, Inc. kits for total RNA followed by oligo (dT) column purification of mRNA are used with HT-29 cells. […] It is then cloned into pGEX-5X-3 glutathione-S-transferase (GST) fusion vector (Pharmacia Biotech) with tac promoter, and EcoRI and XhoI cut sites. The fusion vector is then transfected into E. Coli BL21 (DE3) bacteria (Invitrogen). The transfected BL21 bacteria is grown to log phase, and then IPTG is added as an inducer. The induction is carried at 20° C. for 24 hrs. The bacteria are harvested and lysed. The soluble cell lysate is incubated with GSH conjugated Sepharose 4B (GSH-Sepharose 4B). The GST-cGB-PDE5 fusion protein can bind to the GSH-Sepharose beads, and the other proteins are washed off from beads with excessive cold PBS.
Then, the mixture is transferred to Brandel MB-24 cell harvester with GF/B as the filter membrane followed by 2 washes with 10 mL of cold 5 mM potassium buffer( pH 6.8). The membranes are then cut out and transferred to scintillation vials followed by the addition of 1 mL of H2O and 6 mL of Ready Safe™ liquid scintillation cocktail to each vial. The vials are counted on a Beckman LS 6500 scintillation counter.
The quenching by filter membrane or other debris are also calibrated.

dogs [2] = assay: Acute and seven-dose toxicity in dogs; conditions: dog, in vivo
Method: Therefore, these dogs were subsequently administered seven consecutive doses of 1000 mg/kg/day.

PDE4 = assay: PDE inhibition, similar protocols; assay type: biochemical
rats [3] = assay: Seven-day dose-range finding study in rats; assay type: in vivo, rat; conditions: 7 days
rats [4] = assay: Long-term (91-day) safety assessment study in rats; assay type: in vivo, rat
Description: These changes were not associated with any gross clinical abnormality.

dogs [5] = assay: 91-day oral study in dogs; assay type: in vivo, dog
PDE1 = assay: PDE inhibition, similar protocols; assay type: biochemical
rats [6] = assay: 28-day study in rats; assay type: in vivo, rat
Method: A 28-day study in rats was also carried out at 0, 50, 500 and 2000 mg/kg/day.

PKG1β = assay: Western blot of PKG1β in SW480 cells; assay type: cell-based, human; conditions: various concentrations, 48 hours
Method: as §1

rats [7] = assay: Acute toxicity study in rats; conditions: rat, in vivo
[8] = 91 days, highest dose group (300 mg/kg/day)
[9] = 28 days, 50, 500 and 2000 mg/kg/day

CC1=C(CC(=O)NCc2ccccc2)c2cc(F)ccc2/C1=C\c1ccncc1 [Example 38, (Z)-5-Fluoro-2-Methyl-(4-Pyridylidene)-3-(N-Benzyl) Indenylacetamide Hydrochloride]
side effects (human patients): no significant side effects at any dose | competitive binding with cGMP to PDE5 (PDE 5): does competitively (with cGMP) bind to PDE 5 | GSK3β inactivation by Ser9 phosphorylation (GSK3β): inactivated in vivo by phosphorylation of its Ser9 | competition with cGMP for the cGMP binding sites [1]: does not bind to the cGMP-binding site of PDE5 | signs of toxicity (dogs [2]; 1000 mg/kg): no signs of toxicity | signs of drug-related effects (dogs [2]; 1000 mg/kg/day): At no time in either dosing phase were any obvious signs of drug-related effects observed | IC50 (PDE4): 6 µM | signs of toxicity (rats [3]; 50 mg/kg/day): no observable signs of toxicity | treatment-related effects (rats [3]; 500 mg/kg/day): an increase in absolute and relative liver weights in female rats | treatment-related effects (rats [3]; 2000 mg/kg/day): labored breathing and/or abnormal respiratory sounds, decreased weights gains and food consumption in male rats, and increased liver weights in female rats | hematology, blood chemistry, microscopic pathology (rats [3]; any dose level (50, 500, 2000 mg/kg/day)): No hematological or blood chemistry changes nor any microscopic pathology changes | clinical biochemistry and hematology (rats [4]; 91 days): no changes in clinical biochemistry and hematology were evident | thyroid microscopy (rats [4]; 91 days, 500 mg/kg/day): follicular cell hypertrophy | kidney microscopy (rats [4]; 91 days, 200 and 500 mg/kg/day): increase in accumulation of hyalin droplets in the kidneys | liver microscopy (rats [4]; 91 days, 200 and 500 mg/kg/day): slight hepatocellular hypertrophy | liver and thyroid/parathyroid weights (rats [4]; 91 days, males and females at 200 and 500 mg/kg/day): dose-related trend to increased liver and thyroid/parathyroid weights | toxicological effects overall (rats [4]; oral, 91 consecutive days, 50, 200 and 500 mg/kg/day): did not produce any major toxicological effects | route of elimination (suggested by feces colour) (dogs [5]; 91 days oral): most of Compound 38 was being eliminated via the feces | feces observation (dogs [5]; 91 days, 150 and 300 mg/kg/day): Orange discoloration of the feces | liver microscopy (dogs [5]; 91 days, highest dose group): no microscopic alterations | body weights (dogs [5]; [8]): Slightly lowered body weights | liver weights (dogs [5]; [8]): increased liver weights | toxicological effects overall (dogs [5]; oral, 91 consecutive days, 50, 150 and 300 mg/kg/day): no toxicological effects | IC50 (PDE1): 3 µM | macroscopic tissue changes at necropsy (rats [6]; 28 days): No macroscopic tissue changes | histopathological evaluation of tissues (rats [6]; 28 days, 500 mg/kg/day): one female at 500 mg/kg/day had increased mitotic figures in the thyroid gland | liver weights (rats [6]; 28 days, 2000 mg/kg/day): statistically significant increase in liver weights | thyroid weights (rats [6]; 28 days, 2000 mg/kg/day): statistically significant increases in thyroid weights | body weight changes, ophthalmoscopic examinations, hematological and blood chemistry values, urinalysis (rats [6]; [9]): unremarkable | clinical observations (rats [6]; [9]): no abnormal clinical observations | liver and thyroid weight increases at the lower doses (rats [6]; 28 days, 50 and 500 mg/kg/day): not statistically significant | histopathological evaluation of tissues (rats [6]; 28 days, generally limited to a small number of animals at 2000 mg/kg/day): traces of follicular cell hypertrophy, increased numbers of mitotic figures (suggestive of possible cell proliferation) in the thyroid gland and mild centrilobular hypertrophy in the liver | PKG1 induction (PKG1β): PKG1 induction in a dose-dependent manner | body weight gain (rats [7]; ip, 1000 mg/kg): reduced body weight gain | necropsy findings (rats [7]; ip, 1000 mg/kg): mesenteric adhesions seen in some animals | body weight gains (rats [7]; po, 2000 mg/kg): slightly reduced
